Series [1] is classed as in vivo, patients. As for the experimental part: In one clinical trial, the absorption of the powdered colistimethate sodium into the airways of the lungs was measured (specific airway conductance). […] This is a very high uptake, and more than would be expected from a powdered drug. […] In a second trial, patients were given a premedication dose of 200 micrograms of salbutamol. […] In an alternative medication regime, the salbutamol can be mixed into the same capsule as the colistin sulphomethate sodium.

Series [2] in a line: Water content (Karl-Fisher) of colistimethate sodium powder and gelatin capsules in various storage conditions. Type of series: physicochemical. Set-up: unit not given here. Conditions: n = 3. As for the experimental part:
Aliquots of colistimethate sodium encapsulated in gelatin capsules were stored in relative humidity ranging from about 20% RH to about 80% RH at ambient temperature conditions. Encapsulated colistimethate sodium was tested for moisture content and piercing performance at several time points. For example, the capsules were tested at 23° C. at 30% RH, 23° C. at 40% RH, 23° C. at 48% RH, 23° C. at 75% RH at different time points such as 1, 2, 4, and 24 hrs. Storage conditions were generated using qualified stability chambers set at the target temperature 23° C.±2° C. and the set relative humidity ±5% RH. Ambient laboratory conditions were determined to be at about 23° C.±2° C., 48% RH. Ambient conditions were verified using calibrated NIST thermo-Hygrometers. Average moisture content of colistimethate sodium as well as the moisture content of gelatin capsules was determined using Karl-Fisher determination.

Series [3] relates to gram negative microbial organisms. The series can be described thus: Synergy of activity of the mixture of components. In kind it is cell-based. The source says:
Colistimethate sodium is a negatively charged molecular ion with positively charged sodium counter ions. […] There are five sulphomethate groups (CH2—OS02^−). U.S. Pat. No. 5,767,068 refers to variable groups Rx and R2; Rx is identified as 6-methyloctanoyl or 6-methylheptanoyl, and R2 as sec-butyl, isobutyl or isopropyl.

The conditions of series [4]: in vivo; cited from earlier work.

`CC(C)(C)NCC(O)c1ccc(O)c(CO)c1` (stereo not shown) [salbutamol]: the airway conductance entry in series [1] (premedication dose of 200 micrograms, second trial) is given as “appeared to improve airway conductance”.

As to “colistin sulphomethate sodium [colistimethate sodium]”, the “Water Content (KF)” value worked out at 5.44 in series [2] (23° C./30% RH, 0 hr); 5.28 in series [2] (23° C./30% RH, 1 hr); 5.85 in series [2] (23° C./30% RH, 2 hr); 5.94 in series [2] (23° C./30% RH, 4 hr); 6.54 in series [2] (23° C./30% RH, 24 hr); 5.44 in series [2] (23° C./40% RH, 0 hr). Moreover, the “Water Content (KF)” value in series [2] (23° C./40% RH, 1 hr) was 5.96; in series [2] (23° C./40% RH, 2 hr), 5.81; in series [2] (23° C./40% RH, 4 hr) it was 6.51; in series [2] (23° C./40% RH, 9 hr), 6.50; in series [2] (23° C./40% RH, 24 hr), 9.54; in series [2] (23° C./48% RH, 0 hr), 5.44. In addition, the “Water Content (KF)” value in series [2] (23° C./48% RH, 1 hr) is listed as 5.68; in series [2] (23° C./48% RH, 2 hr), 6.39; in series [2] (23° C./48% RH, 4 hr), 6.64; in series [2] (23° C./48% RH, 24 hr), 14.49; in series [2] (23° C./75% RH, 0 hr), 5.44; in series [2] (23° C./75% RH, 1 hr), 7.04. Besides, the “Water Content (KF)” value is reported as 6.96 in series [2] (23° C./75% RH, 2 hr) and 10.74 in series [2] (23° C./75% RH, 4 hr). In series [3], the “activity of the mixture of components against gram negative microbial organisms” value is recorded as “synergy of activity”. Further, in series [4], the “absorption into the bloodstream” value is given as “poorly absorbed”. Moreover, in series [1] (human, in vivo), the “irritation of the lungs” value is on record as “does not cause irritation”. For the same compound, in series [1] (human, in vivo), the “specific airway conductance, whole body plethysmography, compared with traditional nebulised colistimethate sodium” value is listed as “did not show any noticeable difference”.

The values above are taken from US10441536B2, “Micronized colistimethane sodium pharmaceutical compositions” (Forest Laboratories Holdings Limited, priority 2013, dated 2019).
